For three compounds, binding, Tm increase and ΔTm results are on record in PMC12554177 (2025).

The subject of test [1] is Duplex (DNA, duplex) CAATCGGATCGAATTCGATCCGATTG
Nature of the test: CD melting. Conditions: 2 mM K+ (KCl); 10 mM Tris-HCl pH 7.4, 50 µM drug, 5 µM DNA.

The subject of test [2] is labeled c-myc (DNA, G4) TGAGGGTGGGTAGGGTGGGTAA
Briefly: FRET melting. Conditions: 2 mM K+ (KCl); 2 µM HCQ, ~25 nM DNA.

In test [3] the test system is c-myc (DNA, G4) TGAGGGTGGGTAGGGTGGGTAA
Briefly: 1H NMR imino titration. Conditions: 2 mM K+ (KCl), 100 µM DNA, H2O/D2O 90/10, 25 °C.

In test [4] the test system is c-kit (DNA, G4) CGGGCGGGCGCGAGGGAGGGG
Briefly: CD melting. Conditions: 2 mM K+ (KCl); 10 mM Tris-HCl pH 7.4, 50 µM drug, 5 µM DNA.

For test [5], the system named is bcl2 (DNA, G4) AGGGGCGGGCGCGGGAGGAAGGGGGCGGA
Briefly: CD melting. The conditions noted are these: 2 mM K+ (KCl); 10 mM Tris-HCl pH 7.4, 50 µM drug, 5 µM DNA.

Test [6] has as its system VEGF (DNA, G4) CCCGGGGCGGGCCGGGGGCGGGGTCCCGGCGGGGCGGAG
Briefly: CD melting. Conditions: 2 mM K+ (KCl); 10 mM Tris-HCl pH 7.4, 50 µM drug, 5 µM DNA.

Test [7] deals with KRAS (DNA, G4) GGGAGGGAGGGAAGGAGGGAGGGAGGGA
Briefly: CD melting. The conditions noted are these: 2 mM K+ (KCl); 10 mM Tris-HCl pH 7.4, 50 µM drug, 5 µM DNA.

Test [8] relates to c-myc (DNA, G4) TGAGGGTGGGTAGGGTGGGTAA
Briefly: CD melting. Conditions: 2 mM K+ (KCl); 10 mM Tris-HCl pH 7.4, 50 µM drug, 5 µM DNA.

Usually ΔTm stands for the shift of the melting midpoint relative to a reference.

In the case of `CCN(CC)CCCC(C)Nc1ccnc2cc(Cl)ccc12` (stereo not shown), the binding entry in test [1] was “no”.
As to `CCN(CCO)CCCC(C)Nc1ccnc2cc(Cl)ccc12` (stereo not shown), the Tm increase in test [2] was ~ 12 °C. The values for the binding result in test [3] (5' end stacking) and in test [1] were “yes” and “no”, respectively. In addition, the ΔTm in test [4] was 11 °C; in test [5], 7 °C; in test [6], 9 °C; in test [7], 12 °C; in test [8], ~ 17 °C.
As to `Nc1ccnc2cc(Cl)ccc12`, the binding result in test [3] is reported as “yes”.
